# Results reported in patent US20240351988A1, “ARYL HYDROCARBON RECEPTOR MODULATORS AND THEIR USE IN THE TREATMENT OF DISEASES AND DISORDERS” (Allianthera (Suzhou) Biopharmaceutical Co., Ltd., priority 2021, published 2024).
# Biological target: T1, Human Aryl Hydrocarbon Receptor (AhR) (Homo sapiens, UniProt P35869)
# T1 construct: purchased INDIGO Bioscience #1B06001-32; host or cells: AhR Reporter Cell (kit's proprietary reporter cells)
# T1 sequence (P35869 11-848): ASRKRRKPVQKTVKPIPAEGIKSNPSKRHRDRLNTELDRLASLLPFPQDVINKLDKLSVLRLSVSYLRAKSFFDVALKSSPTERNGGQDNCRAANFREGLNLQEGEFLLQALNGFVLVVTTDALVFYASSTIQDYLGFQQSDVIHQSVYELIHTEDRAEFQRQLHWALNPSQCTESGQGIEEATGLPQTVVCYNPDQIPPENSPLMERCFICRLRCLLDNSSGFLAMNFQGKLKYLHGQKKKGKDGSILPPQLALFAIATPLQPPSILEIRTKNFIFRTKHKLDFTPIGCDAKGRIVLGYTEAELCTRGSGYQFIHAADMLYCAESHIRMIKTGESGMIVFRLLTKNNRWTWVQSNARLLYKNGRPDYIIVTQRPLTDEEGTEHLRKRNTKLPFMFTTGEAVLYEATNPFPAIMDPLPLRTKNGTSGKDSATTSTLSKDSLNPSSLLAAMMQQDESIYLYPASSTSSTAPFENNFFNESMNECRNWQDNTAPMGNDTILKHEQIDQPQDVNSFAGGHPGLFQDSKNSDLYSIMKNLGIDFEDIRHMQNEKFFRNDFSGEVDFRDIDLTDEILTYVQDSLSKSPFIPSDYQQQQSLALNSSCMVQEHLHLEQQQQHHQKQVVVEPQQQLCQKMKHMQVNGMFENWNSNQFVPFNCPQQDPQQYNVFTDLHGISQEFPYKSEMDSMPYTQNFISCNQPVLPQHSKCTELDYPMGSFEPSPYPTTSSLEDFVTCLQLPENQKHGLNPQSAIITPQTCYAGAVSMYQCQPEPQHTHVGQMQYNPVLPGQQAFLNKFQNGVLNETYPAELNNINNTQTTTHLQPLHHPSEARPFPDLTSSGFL
# Assay: AHR antagonist reporter assay in human cell line (INDIGO AhR Reporter Assay System, kynurenic acid activated)
# Type: cell-based
# Conditions: 200 μM kynurenic acid, 24 hours, luciferase; read-out: AhR Reporter Assay KA Antagonist Mode: IC50
# Experimental: The AhR reporter assay was performed following the protocol of the Human Aryl Hydrocarbon Receptor (AhR) Reporter Assay System (INDIGO Bioscience, #1B06001-32). AhR Reporter Cell was thawed and pre-incubated in Cell Recovery Medium (CRM) for 6 hours. The media was then removed and the cells were incubated with Compound Screening Medium (CSM) supplemented with 200 μM kynurenic acid for 24 hours in the absence (negative control) or presence of increasing concentrations of test compounds (typical dilution: […], 3.2 nM, 16 nM, 80 nM, 400 nM, 2 μM, 10 μM in duplicates). For positive inhibition control, cells activated with 200 μM kynurenic acid were incubated in the presence of literature AHR antagonists; alternatively un-activated cells were used as positive inhibition control. Following 24 hours incubation, the media was removed and Luciferase Detection Reagent (LDR) added. The firefly luciferase activity was quantified using a plate reader. Results were normalized by positive and negative controls.
row,IC50 [nM],Structure (SMILES)
1,< 100,CNC(=O)C(C)(C)NC(=O)c1cc(-c2ccc(Cl)cc2)nn(-c2cccc(F)c2)c1=O [Compound 96]
2,> 400,COC[C@H](C)NC(=O)c1cc(-c2cnc(C3CC3)s2)nn(-c2cnn(C)c2)c1=O [Compound 77]
3,> 400,C[C@@H](CO)NC(=O)c1cc(-c2ccc(C(=O)N(C)C)cc2)nn(-c2cccc(F)c2)c1=O [Compound 179]
4,> 400,COC[C@H](C)NC(=O)c1cc(-n2ccc(C3CC3)n2)nn(-c2cnn(C)c2)c1=O [Compound 137]
5,100 to 400,COC[C@H](C)NC(=O)c1cc(-c2cnc(N(C)C)nc2)nn(-c2cnn(C)c2)c1=O [Compound 89]
6,> 400,COC[C@H](C)NC(=O)c1cc(-n2ccc(C(F)(F)F)n2)nn(-c2cnn(C)c2)c1=O [Compound 138]
7,> 400,COC[C@H](C)NC(=O)c1cc(-c2ccc3c(c2)OCO3)nn(-c2cnn(C)c2)c1=O [Compound 140]
8,> 400,O=C(NC1COC1)c1cc(-c2ccc(Cl)cc2)nn(-c2cccc(F)c2)c1=O [Compound 24]
9,> 400,COC[C@H](C)NC(=O)c1cc(N2CC3(CCCCC3)C2)nn(-c2cnn(C)c2)c1=O [Compound 117]
10,> 400,NC(=O)c1cc(-c2ccc(Cl)cc2)nn(-c2cccc(F)c2)c1=O [Compound 4]
11,< 100,COC[C@H](C)NC(=O)c1cc(N2C[C@H]3CCCC[C@H]3C2)nn(-c2cnn(C)c2)c1=O [Compound 125]
12,> 400,C[C@H](NC(=O)c1cc(-n2cc(-c3ccc(Cl)cc3)nn2)nn(-c2cnn(C)c2)c1=O)C(=O)N(C)C [Compound 189]
13,> 400,COC[C@H](C)NC(=O)c1cc(-c2cnc(C(C)=O)s2)nn(-c2cnn(C)c2)c1=O [Compound 87]
14,< 100,COC[C@H](C)NC(=O)c1cc(-c2cnc(C(C)C)s2)nn(-c2cnn(C)c2)c1=O [Compound 88]
15,> 400,CN(C)CCNC(=O)c1cc(-c2ccc(Cl)cc2)nn(-c2cccc(F)c2)c1=O [Compound 19]
16,> 400,CC(CN(C)C)NC(=O)c1cc(-c2ccc(Cl)cc2)nn(-c2cccc(F)c2)c1=O (stereo not shown) [Compound 16]
17,> 400,COC[C@H](C)NC(=O)c1cc(-n2nc(C(F)(F)F)cc2C)nn(-c2cnn(C)c2)c1=O [Compound 143]
18,> 400,COC[C@H](C)NC(=O)c1cc(-c2ccccc2Cl)nn(-c2cnn(C)c2)c1=O [Compound 118]
19,> 400,CNC(=O)c1cc(-c2ccc(Cl)cc2)nn(-c2cccc(F)c2)c1=O [Compound 21]
20,< 100,COC[C@H](C)NC(=O)c1cc(-n2ccc(-c3ccc(Cl)cc3)n2)nn(-c2cnn(C)c2)c1=O [Compound 142]
21,> 400,COC[C@H](C)NC(=O)c1cc(-c2ccc3oc(C)nc3c2)nn(-c2cnn(C)c2)c1=O [Compound 124]

row,IC50 [nM],Structure (SMILES)
1,< 100,C[C@@H](CO)NC(=O)c1cc(N2CCN(c3cccc(F)c3)CC2)nn(-c2cnn(C)c2)c1=O [Compound 210]
2,> 400,CNC(=O)CNC(=O)c1cc(-c2ccc(Cl)cc2)nn(-c2cccc(F)c2)c1=O [Compound 9]
3,> 400,COC[C@H](C)NC(=O)c1cc(-c2cccc(F)c2)nn(-c2cnn(C)c2)c1=O [Compound 105]
4,> 400,COC[C@H](C)NC(=O)c1cc(-c2ccc3sc(C)nc3c2)nn(-c2cnn(C)c2)c1=O [Compound 132]
5,> 400,COC[C@H](C)NC(=O)c1cc(-c2ccc(F)cc2F)nn(-c2cnn(C)c2)c1=O [Compound 109]
6,> 400,COC[C@H](C)NC(=O)c1cc(-c2ccc(N(C)C)nc2)nn(-c2cnn(C)c2)c1=O [Compound 75]
7,> 400,COC[C@H](C)NC(=O)c1cc(-c2ccc3ccc(OC)nc3c2)nn(-c2cnn(C)c2)c1=O [Compound 122]
8,< 100,C[C@H](NC(=O)c1cc(-c2cnc(-c3ccc(Cl)cc3)nc2)nn(-c2cnn(C)c2)c1=O)C(=O)N(C)C [Compound 182]
9,> 400,CN(C)C(=O)CNC(=O)c1cc(-c2ccc(Cl)cc2)nn(-c2cnn(C)c2)c1=O [Compound 36]
10,> 400,CN(C)C(=O)C(C)(C)NC(=O)c1cc(-c2ccc(C(F)(F)F)nc2)nn(-c2cnn(C)c2)c1=O [Compound 166]
11,> 400,COC[C@H](C)NC(=O)c1cc(-c2ccc(Cl)cc2F)nn(-c2cnn(C)c2)c1=O [Compound 85]
12,100 to 400,COC[C@H](C)NC(=O)c1cc(-c2ccc3cccnc3c2F)nn(-c2cnn(C)c2)c1=O [Compound 130]
13,100 to 400,COC[C@H](C)NC(=O)c1cc(-c2ccc(C)cc2)nn(-c2cnn(C)c2)c1=O [Compound 68]
14,> 400,COC[C@H](C)NC(=O)c1cc(C2CCC(C)(C)CC2)nn(-c2cnn(C)c2)c1=O [Compound 119]
15,> 400,COC[C@H](C)NC(=O)c1cc(-c2cnc(C)s2)nn(-c2cnn(C)c2)c1=O [Compound 79]
16,> 400,COC[C@H](C)NC(=O)c1cc(C2CCC(C)CC2)nn(-c2cnn(C)c2)c1=O (stereo partly shown) [Compound 152]
17,> 400,COC[C@H](C)NC(=O)c1cc(-c2ccc(C#N)cc2)nn(-c2cnn(C)c2)c1=O [Compound 83]
18,> 400,CNC(=O)CNC(=O)c1cc(-c2ccc(Cl)cc2)nn(-c2cnn(C)c2)c1=O [Compound 35]
19,> 400,COC[C@H](C)NC(=O)c1cc(N2C(=O)C(C)(C)c3ccccc32)nn(-c2cnn(C)c2)c1=O [Compound 134]
20,> 400,Cn1cc(-n2nc(-c3ccc(Cl)cc3)cc(C(=O)NCC(N)=O)c2=O)cn1 [Compound 34]
21,< 100,O=C(NC1CCCCNC1=O)c1cc(-c2ccc(Cl)cc2)nn(-c2cccc(F)c2)c1=O (stereo not shown) [Compound 28]

row,IC50 [nM],Structure (SMILES)
1,< 100,COC[C@H](C)NC(=O)c1cc(C2=CCC(C)CC2)nn(-c2cnn(C)c2)c1=O (stereo partly shown) [Compound 149]
2,> 400,CC(=O)N(C)CC(C)NC(=O)c1cc(-c2ccc(Cl)cc2)nn(-c2cccc(F)c2)c1=O (stereo not shown) [Compound 3]
3,> 400,C[C@H](NC(=O)c1cc(-n2ncc(-c3ccc(Cl)cc3)n2)nn(-c2cnn(C)c2)c1=O)C(=O)N(C)C [Compound 188]
4,> 400,CC(=O)N(C)CCNC(=O)c1cc(-c2ccc(Cl)cc2)nn(-c2cccc(F)c2)c1=O [Compound 20]
5,100 to 400,COC[C@H](C)NC(=O)c1cc(-c2ccc(OC)cc2)nn(-c2cnn(C)c2)c1=O [Compound 74]
6,> 400,COC[C@H](C)NC(=O)c1cc(N2CC3(CCCC3)C2)nn(-c2cnn(C)c2)c1=O [Compound 110]
7,> 400,CC(=O)N1CC(NC(=O)c2cc(-c3ccc(Cl)cc3)nn(-c3cccc(F)c3)c2=O)C1 [Compound 30]
8,> 400,COC[C@H](C)NC(=O)c1cc(-c2cc3c(O)ncnc3cc2F)nn(-c2cnn(C)c2)c1=O [Compound 154]
9,< 100,C[C@@H](CO)NC(=O)c1cc(-c2cnc(-c3ccccc3)nc2)nn(-c2cnn(C)c2)c1=O [Compound 187]
10,> 400,COC[C@H](C)NC(=O)c1cc(-c2ccc3c(c2)CCCO3)nn(-c2cnn(C)c2)c1=O [Compound 111]
11,> 400,NC(=O)CNC(=O)c1cc(-c2ccc(Cl)cc2)nn(-c2cccc(F)c2)c1=O [Compound 8]
12,< 100,C[C@@H](CO)NC(=O)c1cc(-n2ccc(-c3ccc(Cl)cc3)n2)nn(-c2cnn(C)c2)c1=O [Compound 162]
13,> 400,COC[C@H](C)NC(=O)c1cc(-c2ccc3c(c2)N(C)CC3)nn(-c2cnn(C)c2)c1=O [Compound 141]
14,< 100,COC[C@H](C)NC(=O)c1cc(-c2ccc(OC(F)(F)F)cc2)nn(-c2cnn(C)c2)c1=O [Compound 69]
15,> 400,COC[C@H](C)NC(=O)c1cc(N2CCC(C)CC2)nn(-c2cnn(C)c2)c1=O [Compound 114]
16,> 400,COC[C@H](C)NC(=O)c1cc(-c2ccc3ncccc3c2)nn(-c2cnn(C)c2)c1=O [Compound 126]
17,> 400,COCCNC(=O)c1cc(-c2ccc(Cl)cc2)nn(-c2cccc(F)c2)c1=O [Compound 6]
18,> 400,COC[C@H](C)NC(=O)c1cc(-c2cc(F)c3ncccc3c2F)nn(-c2cnn(C)c2)c1=O [Compound 144]
19,< 100,CNC(=O)[C@H](C)NC(=O)c1cc(-c2ccc(C(=O)N(C)C)cc2)nn(-c2cccc(F)c2)c1=O [Compound 180]
